Experiments:
[1] = target: Ephrin type-A receptor 5 (Homo sapiens) (UniProt P54756); details: Compound concentration 100.0 nM
[2] = target: Tyrosine-protein kinase Fyn (Homo sapiens) (UniProt P06241); details: Compound concentration 100.0 nM
[3] = target: Cyclin-dependent kinase 16 (Homo sapiens) (UniProt Q00536); details: Compound concentration 100.0 nM
[4] = target: Phosphatidylinositol 4,5-bisphosphate 3-kinase catalytic subunit delta isoform (Homo sapiens) (UniProt O00329); details: Compound concentration 100.0 nM
[5] = target: Cyclin-dependent kinase 19 (Homo sapiens) (UniProt Q9BWU1); details: Compound concentration 100.0 nM
Cyclin-dependent kinase 19 (Homo sapiens), sequence (Q9BWU1 whole entry): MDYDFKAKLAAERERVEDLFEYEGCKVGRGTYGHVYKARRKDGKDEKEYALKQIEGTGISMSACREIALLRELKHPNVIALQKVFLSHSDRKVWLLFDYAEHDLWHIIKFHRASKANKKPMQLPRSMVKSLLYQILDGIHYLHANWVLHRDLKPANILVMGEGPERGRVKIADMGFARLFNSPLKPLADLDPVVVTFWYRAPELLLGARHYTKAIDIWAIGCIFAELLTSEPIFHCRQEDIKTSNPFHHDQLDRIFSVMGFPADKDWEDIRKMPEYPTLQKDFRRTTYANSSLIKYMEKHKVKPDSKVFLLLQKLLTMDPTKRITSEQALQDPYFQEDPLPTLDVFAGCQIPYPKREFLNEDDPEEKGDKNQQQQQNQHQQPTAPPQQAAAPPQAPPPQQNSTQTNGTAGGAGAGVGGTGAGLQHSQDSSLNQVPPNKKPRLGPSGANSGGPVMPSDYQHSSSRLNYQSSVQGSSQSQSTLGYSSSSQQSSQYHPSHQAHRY

[6] = target: Ephrin type-B receptor 3 (Homo sapiens) (UniProt P54753); details: Compound concentration 100.0 nM
[7] = target: T1, Tyrosine-protein kinase receptor TYRO3 (Homo sapiens) (UniProt Q06418); details: Compound concentration 100.0 nM
T1 sequence (whole entry): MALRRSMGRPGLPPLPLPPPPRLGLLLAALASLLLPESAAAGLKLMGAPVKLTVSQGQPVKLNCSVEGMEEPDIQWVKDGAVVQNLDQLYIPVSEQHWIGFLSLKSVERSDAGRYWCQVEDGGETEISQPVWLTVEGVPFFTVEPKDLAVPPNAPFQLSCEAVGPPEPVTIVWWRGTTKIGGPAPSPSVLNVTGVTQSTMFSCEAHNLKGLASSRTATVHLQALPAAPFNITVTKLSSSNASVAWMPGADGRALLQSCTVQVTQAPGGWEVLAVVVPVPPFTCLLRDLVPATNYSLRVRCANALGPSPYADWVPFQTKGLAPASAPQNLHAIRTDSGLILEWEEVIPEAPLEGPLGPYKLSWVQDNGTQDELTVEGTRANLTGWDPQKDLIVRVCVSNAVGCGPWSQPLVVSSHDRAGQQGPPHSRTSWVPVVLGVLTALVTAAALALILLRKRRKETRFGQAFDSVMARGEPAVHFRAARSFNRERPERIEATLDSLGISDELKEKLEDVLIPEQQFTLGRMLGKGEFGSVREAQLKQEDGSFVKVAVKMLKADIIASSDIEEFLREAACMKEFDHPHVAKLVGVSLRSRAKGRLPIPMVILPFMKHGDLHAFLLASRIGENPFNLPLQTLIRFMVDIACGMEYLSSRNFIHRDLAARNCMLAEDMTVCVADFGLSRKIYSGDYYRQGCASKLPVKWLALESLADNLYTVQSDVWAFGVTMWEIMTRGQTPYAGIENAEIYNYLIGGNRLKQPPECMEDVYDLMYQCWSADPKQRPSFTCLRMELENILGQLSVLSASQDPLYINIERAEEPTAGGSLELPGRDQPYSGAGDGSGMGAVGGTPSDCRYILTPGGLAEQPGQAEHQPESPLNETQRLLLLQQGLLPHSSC

[8] = target: NUAK family SNF1-like kinase 1 (Homo sapiens) (UniProt O60285); details: Compound concentration 100.0 nM
NUAK family SNF1-like kinase 1 (Homo sapiens), sequence (O60285 whole entry): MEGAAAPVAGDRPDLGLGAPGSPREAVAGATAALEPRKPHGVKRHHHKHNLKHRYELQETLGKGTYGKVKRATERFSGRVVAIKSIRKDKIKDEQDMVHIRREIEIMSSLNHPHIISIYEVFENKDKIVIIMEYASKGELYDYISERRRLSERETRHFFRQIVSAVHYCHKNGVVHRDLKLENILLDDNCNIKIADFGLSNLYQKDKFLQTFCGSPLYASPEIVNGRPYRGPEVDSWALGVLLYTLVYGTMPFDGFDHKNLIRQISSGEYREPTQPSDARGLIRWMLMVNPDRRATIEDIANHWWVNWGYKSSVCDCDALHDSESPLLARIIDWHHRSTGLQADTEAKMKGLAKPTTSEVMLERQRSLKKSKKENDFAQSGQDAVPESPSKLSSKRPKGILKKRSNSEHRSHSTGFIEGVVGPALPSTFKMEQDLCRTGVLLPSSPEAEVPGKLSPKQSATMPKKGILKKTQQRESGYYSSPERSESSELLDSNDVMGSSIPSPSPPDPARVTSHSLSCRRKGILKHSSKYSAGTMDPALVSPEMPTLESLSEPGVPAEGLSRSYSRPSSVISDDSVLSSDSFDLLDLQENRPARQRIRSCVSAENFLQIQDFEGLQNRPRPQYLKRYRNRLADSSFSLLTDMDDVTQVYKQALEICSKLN

[9] = target: Phosphatidylinositol 4-kinase beta (Homo sapiens) (UniProt Q9UBF8); details: Compound concentration 100.0 nM
Phosphatidylinositol 4-kinase beta (Homo sapiens), sequence (Q9UBF8 2-816 limits assumed): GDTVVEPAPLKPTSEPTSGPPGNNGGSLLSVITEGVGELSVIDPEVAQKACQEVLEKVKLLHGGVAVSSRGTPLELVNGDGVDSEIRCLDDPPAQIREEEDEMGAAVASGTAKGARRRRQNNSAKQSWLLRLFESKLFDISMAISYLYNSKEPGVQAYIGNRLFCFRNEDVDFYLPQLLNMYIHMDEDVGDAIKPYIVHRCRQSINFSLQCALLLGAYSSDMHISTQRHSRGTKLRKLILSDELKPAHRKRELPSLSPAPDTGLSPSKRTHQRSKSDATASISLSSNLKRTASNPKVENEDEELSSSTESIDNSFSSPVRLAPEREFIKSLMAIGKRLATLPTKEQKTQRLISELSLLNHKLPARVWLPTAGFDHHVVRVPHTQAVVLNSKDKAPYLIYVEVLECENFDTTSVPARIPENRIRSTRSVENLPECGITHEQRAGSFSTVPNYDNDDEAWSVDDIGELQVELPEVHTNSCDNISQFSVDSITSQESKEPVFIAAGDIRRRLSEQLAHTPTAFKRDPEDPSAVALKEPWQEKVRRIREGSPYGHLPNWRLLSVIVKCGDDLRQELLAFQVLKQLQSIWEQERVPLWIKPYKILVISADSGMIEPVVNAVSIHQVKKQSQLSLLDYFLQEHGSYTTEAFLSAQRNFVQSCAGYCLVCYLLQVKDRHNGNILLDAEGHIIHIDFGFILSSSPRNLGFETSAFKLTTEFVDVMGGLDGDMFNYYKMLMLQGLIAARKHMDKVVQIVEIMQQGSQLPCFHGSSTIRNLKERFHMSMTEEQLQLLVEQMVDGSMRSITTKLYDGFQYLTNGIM

[10] = target: Dual specificity protein kinase CLK2 (Homo sapiens) (UniProt P49760); details: Compound concentration 100.0 nM
[11] = target: Serine/threonine-protein kinase DCLK2 (Homo sapiens) (UniProt Q8N568); details: Compound concentration 100.0 nM
Serine/threonine-protein kinase DCLK2 (Homo sapiens), sequence (Q8N568 whole entry): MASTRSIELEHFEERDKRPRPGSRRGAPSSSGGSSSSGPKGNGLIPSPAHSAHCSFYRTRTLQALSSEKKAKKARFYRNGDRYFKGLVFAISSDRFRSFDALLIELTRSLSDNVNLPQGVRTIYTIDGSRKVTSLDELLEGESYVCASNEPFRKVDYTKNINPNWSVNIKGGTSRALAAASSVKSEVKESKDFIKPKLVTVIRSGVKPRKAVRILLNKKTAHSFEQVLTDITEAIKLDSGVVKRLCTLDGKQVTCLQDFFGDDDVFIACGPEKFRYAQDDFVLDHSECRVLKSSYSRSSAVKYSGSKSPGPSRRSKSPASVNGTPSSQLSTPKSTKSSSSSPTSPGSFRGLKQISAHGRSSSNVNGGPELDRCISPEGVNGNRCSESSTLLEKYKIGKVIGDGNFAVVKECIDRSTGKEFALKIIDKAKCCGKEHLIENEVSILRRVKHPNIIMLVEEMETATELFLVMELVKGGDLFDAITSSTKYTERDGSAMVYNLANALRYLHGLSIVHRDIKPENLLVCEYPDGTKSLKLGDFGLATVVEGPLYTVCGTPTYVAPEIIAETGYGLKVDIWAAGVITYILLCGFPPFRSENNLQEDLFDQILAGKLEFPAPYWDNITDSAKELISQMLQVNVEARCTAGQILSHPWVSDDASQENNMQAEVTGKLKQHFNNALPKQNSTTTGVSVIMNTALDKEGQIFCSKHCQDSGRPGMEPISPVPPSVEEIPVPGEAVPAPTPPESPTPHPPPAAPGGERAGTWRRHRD

[12] = target: Tyrosine-protein kinase ITK/TSK (Homo sapiens) (UniProt Q08881); details: Compound concentration 100.0 nM
[13] = target: Serine/threonine-protein kinase MAK (Homo sapiens) (UniProt P20794); details: Compound concentration 100.0 nM
[14] = target: Tyrosine-protein kinase Fes/Fps (Homo sapiens) (UniProt P07332); details: Compound concentration 100.0 nM
Tyrosine-protein kinase Fes/Fps (Homo sapiens), sequence (P07332 whole entry): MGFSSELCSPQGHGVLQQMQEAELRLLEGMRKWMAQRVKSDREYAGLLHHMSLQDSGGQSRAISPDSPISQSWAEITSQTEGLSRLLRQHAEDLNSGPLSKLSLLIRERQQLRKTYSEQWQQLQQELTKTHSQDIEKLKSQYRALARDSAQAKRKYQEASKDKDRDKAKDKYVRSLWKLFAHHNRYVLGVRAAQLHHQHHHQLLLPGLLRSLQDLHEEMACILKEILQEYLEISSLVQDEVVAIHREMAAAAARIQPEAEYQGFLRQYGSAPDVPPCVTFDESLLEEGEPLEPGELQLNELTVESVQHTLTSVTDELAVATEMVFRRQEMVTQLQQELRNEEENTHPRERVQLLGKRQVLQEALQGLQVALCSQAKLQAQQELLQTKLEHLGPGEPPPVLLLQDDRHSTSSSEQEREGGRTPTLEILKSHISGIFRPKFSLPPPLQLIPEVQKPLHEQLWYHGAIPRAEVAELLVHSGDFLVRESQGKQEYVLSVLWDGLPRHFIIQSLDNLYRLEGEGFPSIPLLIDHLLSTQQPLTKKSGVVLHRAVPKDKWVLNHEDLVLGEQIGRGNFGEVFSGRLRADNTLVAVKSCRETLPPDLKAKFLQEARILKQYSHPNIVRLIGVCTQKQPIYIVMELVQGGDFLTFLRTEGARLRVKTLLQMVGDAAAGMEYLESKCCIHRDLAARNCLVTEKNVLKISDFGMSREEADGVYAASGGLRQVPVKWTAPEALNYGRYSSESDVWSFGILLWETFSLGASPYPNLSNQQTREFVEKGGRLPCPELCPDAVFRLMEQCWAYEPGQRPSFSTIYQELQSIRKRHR

[15] = target: Serine/threonine-protein kinase TAO3 (Homo sapiens) (UniProt Q9H2K8); details: Compound concentration 100.0 nM
[16] = target: 5-hydroxytryptamine receptor 5A (Homo sapiens) (UniProt P47898); details: Compound concentration 10.0 uM
[17] = system: Tyrosine-protein kinase ABL1 (Homo sapiens), P00519 [M351T]; details: Compound concentration 100.0 nM
[18] = target: Mitogen-activated protein kinase 11 (Homo sapiens) (UniProt Q15759); details: Compound concentration 100.0 nM
[19] = target: 5-hydroxytryptamine receptor 1D (Homo sapiens) (UniProt P28221); details: Compound concentration 10.0 uM
[20] = target: Histamine H2 receptor (Homo sapiens) (UniProt P25021); details: Compound concentration 10.0 uM
[21] = system: Phosphatidylinositol 4,5-bisphosphate 3-kinase catalytic subunit alpha isoform (Homo sapiens), P42336 [I800L]; details: Compound concentration 100.0 nM
[22] = target: Serine/threonine-protein kinase DCLK1 (Homo sapiens) (UniProt O15075); details: Compound concentration 100.0 nM
[23] = target: Alpha-2B adrenergic receptor (Homo sapiens) (UniProt P18089); details: Compound concentration 10.0 uM
[24] = target: Casein kinase I isoform alpha-like (Homo sapiens) (UniProt Q8N752); details: Compound concentration 100.0 nM
Casein kinase I isoform alpha-like (Homo sapiens), sequence (Q8N752 whole entry, canonical isoform): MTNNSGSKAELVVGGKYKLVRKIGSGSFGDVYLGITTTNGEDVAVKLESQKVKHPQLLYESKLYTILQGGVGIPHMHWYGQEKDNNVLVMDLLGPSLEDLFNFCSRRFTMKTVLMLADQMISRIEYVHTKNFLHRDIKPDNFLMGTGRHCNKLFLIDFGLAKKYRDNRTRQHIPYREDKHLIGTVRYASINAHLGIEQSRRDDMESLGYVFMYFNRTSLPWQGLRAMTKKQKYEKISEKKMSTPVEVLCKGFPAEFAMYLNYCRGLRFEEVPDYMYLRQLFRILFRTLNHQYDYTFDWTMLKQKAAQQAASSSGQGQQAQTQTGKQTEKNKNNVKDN

[25] = target: cGMP-dependent protein kinase 2 (Homo sapiens) (UniProt Q13237); details: Compound concentration 100.0 nM
[26] = target: Casein kinase I isoform gamma-1 (Homo sapiens) (UniProt Q9HCP0); details: Compound concentration 100.0 nM
[27] = target: Serine/threonine-protein kinase N1 (Homo sapiens) (UniProt Q16512); details: Compound concentration 100.0 nM
[28] = target: Mitogen-activated protein kinase kinase kinase kinase 3 (Homo sapiens) (UniProt Q8IVH8); details: Compound concentration 100.0 nM
[29] = target: Mitogen-activated protein kinase kinase kinase 12 (Homo sapiens) (UniProt Q12852); details: Compound concentration 100.0 nM
[30] = target: Serine/threonine-protein kinase PAK 6 (Homo sapiens) (UniProt Q9NQU5); details: Compound concentration 100.0 nM
[31] = target: Dual specificity protein kinase TTK (Homo sapiens) (UniProt P33981); details: Compound concentration 100.0 nM
[32] = target: Serine/threonine-protein kinase Chk2 (Homo sapiens) (UniProt O96017); details: Compound concentration 100.0 nM
Serine/threonine-protein kinase Chk2 (Homo sapiens), sequence (O96017 whole entry): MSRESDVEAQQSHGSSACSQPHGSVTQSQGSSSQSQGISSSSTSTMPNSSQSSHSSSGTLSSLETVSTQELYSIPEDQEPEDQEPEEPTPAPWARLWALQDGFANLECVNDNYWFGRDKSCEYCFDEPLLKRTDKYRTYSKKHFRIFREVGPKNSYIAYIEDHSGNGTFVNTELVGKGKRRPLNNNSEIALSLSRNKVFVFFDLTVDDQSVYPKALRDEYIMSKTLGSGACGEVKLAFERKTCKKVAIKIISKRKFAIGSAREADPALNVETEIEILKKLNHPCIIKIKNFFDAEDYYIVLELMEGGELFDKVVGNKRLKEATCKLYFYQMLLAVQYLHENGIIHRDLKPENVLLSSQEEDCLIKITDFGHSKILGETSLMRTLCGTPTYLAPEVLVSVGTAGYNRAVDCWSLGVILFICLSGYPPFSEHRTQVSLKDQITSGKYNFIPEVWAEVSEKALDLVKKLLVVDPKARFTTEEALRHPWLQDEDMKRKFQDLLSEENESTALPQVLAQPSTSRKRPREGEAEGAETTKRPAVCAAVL

[33] = target: NT-3 growth factor receptor (Homo sapiens) (UniProt Q16288); details: Compound concentration 100.0 nM

Cyclin-dependent kinase 16 (Homo sapiens), sequence (Q00536 whole entry, canonical isoform): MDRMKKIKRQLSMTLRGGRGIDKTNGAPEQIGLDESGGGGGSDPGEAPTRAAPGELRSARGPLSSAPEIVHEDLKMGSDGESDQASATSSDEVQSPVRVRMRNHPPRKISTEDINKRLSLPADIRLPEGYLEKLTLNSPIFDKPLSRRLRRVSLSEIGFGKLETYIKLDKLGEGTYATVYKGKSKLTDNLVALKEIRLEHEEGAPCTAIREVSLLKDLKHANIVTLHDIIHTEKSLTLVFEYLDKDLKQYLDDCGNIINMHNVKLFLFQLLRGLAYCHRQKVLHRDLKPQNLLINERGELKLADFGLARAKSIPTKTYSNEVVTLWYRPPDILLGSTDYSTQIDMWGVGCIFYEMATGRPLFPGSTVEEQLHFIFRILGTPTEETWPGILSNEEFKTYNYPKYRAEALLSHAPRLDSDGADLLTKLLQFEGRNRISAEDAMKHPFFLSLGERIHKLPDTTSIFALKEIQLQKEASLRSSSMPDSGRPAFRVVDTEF

Cn1cc(Cl)c2c(Oc3c(F)cc(Nc4cc(Cl)nc(N)n4)cc3F)ccnc21 [BAY-4900]
inactive: residual activity [1] 100% | residual activity [2] 80% | residual activity [3] 100% | residual activity [4] 51% | residual activity [5] 88% | residual activity [6] 100% | residual activity [7] 80% | residual activity [8] 96% | residual activity [9] 100% | residual activity [10] 87% | residual activity [11] 100% | residual activity [12] 97% | residual activity [13] 97% | residual activity [14] 100% | residual activity [15] 100% | inhibition [16] 0.35% | residual activity [17] 90% | residual activity [18] 100% | inhibition [19] -5.84% | inhibition [20] 16.7% | residual activity [21] 82% | residual activity [22] 85% | inhibition [23] -4.05% | residual activity [24] 98% | residual activity [25] 83% | residual activity [26] 100% | residual activity [27] 100% | residual activity [28] 100% | residual activity [29] 100% | residual activity [30] 100% | residual activity [31] 100% | residual activity [32] 94% | residual activity [33] 76%

Cc1c[nH]c2nccc(Oc3c(F)cc(Nc4cc(Cl)nc(N)n4)cc3F)c12 [BAY-549]
inactive: residual activity [1] 92% | residual activity [2] 100% | residual activity [3] 99% | residual activity [4] 51% | residual activity [5] 80% | residual activity [6] 100% | residual activity [7] 100% | residual activity [8] 91% | residual activity [9] 97% | residual activity [10] 86% | residual activity [11] 100% | residual activity [12] 81% | residual activity [13] 84% | residual activity [14] 100% | residual activity [15] 100% | inhibition [16] -9.86% | residual activity [17] 83% | residual activity [18] 97% | inhibition [19] 45% | inhibition [20] 23.7% | residual activity [21] 90% | residual activity [22] 65% | inhibition [23] 11.7% | residual activity [24] 89% | residual activity [25] 90% | residual activity [26] 100% | residual activity [27] 72% | residual activity [28] 91% | residual activity [29] 98% | residual activity [30] 82% | residual activity [31] 96% | residual activity [32] 89% | residual activity [33] 86%
